According to patent publication US12054477B2, “Prodrug of pyrrolidone derivatives as glucokinase activator” (HUA MEDICINE (SHANGHAI) LTD., priority 2021, dated 2024):
Where two headings read alike, the source gives them in different places.

Legend:
[1] = for Remaining of Test Compound (%): SIF pH about 6.80, 37° C., 2 μM
Experimental: Preparation of Simulated Intestinal Fluid (SIF): Dissolve 0.136 g KH2PO4 and 0.2 g pancreatin with water and make up the final volume to 20 mL. The pH of the test solution was about 6.80±0.05.
(§3) Then 200 μL of supernatant was pipetted and mixed completely again with 400 μL of cold acetonitrile containing 200 ng/mL tolbutamide (internal standard). • 7) All samples were centrifuged at 4000 rpm, 4° C. for 20 min. • 8) 60 μL of supernatant was pipetted and mixed with 180 μL of ultra-pure water, and the mixture was mixed completely for LC-MS/MS analysis.

[2] = Simulated metabolic test of compounds in Human Intestine S9; format: in vitro ADME; details: for Remaining of Test Compound (%): HIS9 0.5 mg/mL, 37° C.
Experimental: Preparation of Phosphate Buffer (PB): Dissolve 73.21 g K2TIPO4·3H2O (AR grade) and 10.78 g KH2PO4 (AR grade) in ultra-pure water to make the final volume to 4000 mL and the final concentration to 100 mM. The pH of the final test solution was adjusted to pH 7.40±0.10 with H3PO4/KOH.
An Apricot automation workstation was used to add 50 μL/well of HIS9 solution to the corresponding wells of all reaction plates (blank, T0, T5, T15, T30, T45, T60).
Using an Apricot automation workstation, 2 μL/well of test compound working solution was added to the corresponding wells of all 96-well reaction plates except the blank (T0, T5, T15, T30, T45, T60).
An Apricot automation workstation was used to add 48 μL/well of PB to the corresponding wells of every reaction plate (Blank, T0, T5, T15, T30, T45, T60) to start the reaction.
The reaction plates were incubated at 37° C., and timer was started. An Apricot automation workstation was used to add 300 μL/well of stop solution (cold acetonitrile containing 200 ng/mL tolbutamide (internal standard)) to the corresponding wells of each reaction plate at its appropriate end time point to terminate the reaction.
Each plate was sealed and shaken for 10 minutes. After shaking, each plate was centrifuged at 4000 rpm and 4° C. for 20 minutes. After centrifugation, 100 μL of supernatant was transferred from each reaction plate to its corresponding bioanaylsis plate, and mixed well with 300 μL ultra-pure water.

[3] = Pharmacokinetic studies in male SD rats (IV bolus and gavage); details: rat, in vivo
Experimental: Samples were placed on wet ice until centrifugation (within 30 min). […] Supernatant plasma was pipetted, then quickly frozen over dry ice and kept at −60° C. or lower temperature until LC-MS/MS analysis.

[4] = system: Caco-2 cells; experiment: Bi-directional permeability test using Caco-2 cells; details: for The average Apparent Permeability Papp A→B: 2 hours, pH 7.40
[5] = system: C57BL/6J mice; experiment: Plasma insulin levels during OGTT; format: in vivo; details: for Insulin levels at 0 min vs vehicle control group and HMS5552-40 mg/kg group: 0 min (pre-glucose); for Insulin levels at 15 min vs vehicle control group / Insulin levels at 15 min vs corresponding groups of HMS5552: 15 min post-glucose
Experimental: (§1) 104 C57BL/6J mice were randomly divided into 13 groups according to body weight, 8 mice per group. The first group were administered with vehicle solvent (5 mL/kg, PO) as the control group, other groups were administered with corresponding concentration of test compounds (5 mL/kg, PO). […] The oral glucose tolerance test (OGTT) was performed 1 hour after administration of test compounds. Blood glucose (BG) were measured at −60 min (pre-dose), 0 min (pre-glucose), 15 min, 30 min, 60 min and 120 min after glucose treatment. Blood samples (40 μl) were collected from tail veins at 0 min (pre-glucose), and 15 min (post-glucose) to separate plasma for insulin detection.
(§2) All data was transferred into an Excel spreadsheet. Blood glucose was expressed in mg/dL. All values were expressed as Mean±SEM. The significance of the differences between groups were evaluated by one-way ANOVA or two-way ANOVA followed by Dunnett's multiple comparisons test or Tukey's multiple comparisons test using GraphPad Prism 8. A p value of less than 0.05 is considered statistically significant.

[6] = Stability test of compounds in Simulated Gastric Fluid (SGF); format: in vitro ADME; details: for Stability in SGF (in words): 24 hours; for Remaining of Test Compound (%): SGF pH about 1.20, 37° C., 2 μM
Experimental: The pH of the test solution was about 1.20±0.05.
as §3

[7] = system: C57BL/6J mice; experiment: Oral glucose tolerance test (OGTT), blood glucose; format: in vivo; details: for AUC0-120min of blood glucose vs vehicle control group / BG values after glucose treatment vs HMS5552-40 mg/kg group / BG values after glucose treatment vs vehicle control group / AUC0-120min of blood glucose vs corresponding groups of HMS5552: OGTT; for AUC0-120min of blood glucose vs vehicle control group: all low, middle, high dose groups; for AUC0-120min of blood glucose vs vehicle control group / BG values after glucose treatment vs HMS5552-40 mg/kg group / BG values after glucose treatment vs vehicle control group / AUC0-120min of blood glucose vs corresponding groups of HMS5552 / BG values at 0 min (pre-glucose) vs vehicle control group: PO; for BG values after glucose treatment vs HMS5552-40 mg/kg group: high dose group (Compound 3 49.1, Compound 6 46.1, Compound 7 48.6 mg/kg); for BG values after glucose treatment vs vehicle control group: high dose group (HMS5552 40 mg/kg; Compound 3 49.1 mg/kg); for AUC0-120min of blood glucose vs corresponding groups of HMS5552: middle and high dose levels (equimolar to 15 and 40 mg/kg HMS5552); for BG values at 0 min (pre-glucose) vs vehicle control group: all treatment groups, 1 hour after administration
Experimental: as §1, §2

[8] = Caco-2, Compound 3 concentration 2.00 μM
[9] = Caco-2, Compound 3 concentration 10.0 μM
[10] = Caco-2, Compound 3 concentration 30.0 μM
[11] = high dose (Compound 3 49.1, Compound 6 46.1, Compound 7 48.6 mg/kg)
[12] = middle dose (Compound 3 18.4, Compound 7 18.2 mg/kg)
[13] = high dose (Compound 6 46.1, Compound 7 48.6 mg/kg)

SMILES | Degradation in SIF (in words) [1] | Metabolism in human intestinal S9 (in words) ([2]; HIS9) | Remaining of Test Compound (%) ([2]; time point 5 min) | Remaining of Test Compound (%) ([2]; time point 15 min) | Remaining of Test Compound (%) ([2]; time point 30 min) | Remaining of Test Compound (%) ([2]; time point 45 min) | Remaining of Test Compound (%) ([2]; time point 60 min) | Metabolism after intravenous injection (in words) [3] | Insulin levels at 0 min vs vehicle control group and HMS5552-40 mg/kg group [5, 11] | Insulin levels at 15 min vs vehicle control group [5, 11] | Insulin levels at 15 min vs vehicle control group [5, 12] | Stability in SGF (in words) [6] | Insulin secretion and glucose-lowering effect as compared to HMS5552 (in words) [7] | AUC0-120min of blood glucose vs vehicle control group [7] | BG values after glucose treatment vs HMS5552-40 mg/kg group [7] | BG values after glucose treatment vs vehicle control group [7] | AUC0-120min of blood glucose vs corresponding groups of HMS5552 [7] | BG values at 0 min (pre-glucose) vs vehicle control group [7] | Insulin levels at 15 min vs corresponding groups of HMS5552 [5, 13] | further results
CC(C)C[C@@H](C(=O)Nc1ccn(C[C@@H](O)COC(=O)c2cccnc2)n1)N1CC(Oc2ccccc2Cl)=CC1=O [Compound 3] | extensively degraded in SIF | well metabolized in human intestinal S9 | 0 | 0 | 0 | 0 | 0 | metabolized very rapidly in rats by intravenous injection | significantly higher than the vehicle control group and HMS5552-40 mg/kg group at 0 min | significantly higher than the vehicle control group at 15 min | significantly higher than the vehicle control group at 15 min | stable in SGF for 24 hours | increased insulin secretion and greater glucose-lowering effect as compared to HMS5552 | significantly lower than the vehicle control group, with dose-response relationship | significantly lower than HMS5552-40 mg/kg group at 30 min, 60 min, and 120 min | significantly lower than the vehicle control group at 15 min, 30 min, 60 min, and 120 min | significantly lower than the corresponding groups of HMS5552 (P<0.01) | overall lower than the vehicle control group, with dose-response relationship | – | Time within which completely metabolized and converted into parent drug HMS5552 ([2]; HIS9): ≤ 5 min; clearance ([3]; male SD rats, IV bolus 10 mg/kg, analyte prodrug): 290 mL/min/kg; Tmax ([3]; male SD rats, PO 30 mg/kg, analyte prodrug, read-out: Tmax (median)): 15 min; Average Recovery Rate (%) A→B [4, 8]: 52.9%; Average Recovery Rate (%) B→A [4, 8]: 87.1%; The average Apparent Permeability Papp A→B [4, 8]: 0.02977 10^−6 cm/s; Average Recovery Rate (%) A→B [4, 9]: 37.5%; Average Recovery Rate (%) B→A [4, 9]: 81.6%; The average Apparent Permeability Papp A→B [4, 9]: 0.03187 10^−6 cm/s; Average Recovery Rate (%) B→A [4, 10]: 82.2%; The average Apparent Permeability Papp A→B [4, 10]: 0.04322 10^−6 cm/s; Insulin levels at 15 min vs corresponding groups of HMS5552 ([5]; middle dose (Compound 3 18.4 mg/kg)): significantly higher than the corresponding groups of HMS5552 at 15 min
CC(C)C[C@@H](C(=O)Nc1ccn(C[C@@H](O)COC(=O)[C@H](C)N)n1)N1CC(Oc2ccccc2Cl)=CC1=O [Compound 6] | – | – | – | – | – | – | – | – | significantly higher than the vehicle control group and HMS5552-40 mg/kg group at 0 min | significantly higher than the vehicle control group at 15 min | – | – | increased insulin secretion and greater glucose-lowering effect as compared to HMS5552 | significantly lower than the vehicle control group, with dose-response relationship | significantly lower than HMS5552-40 mg/kg group at 15 min, 30 min, 60 min, and 120 min | – | significantly lower than the corresponding groups of HMS5552 (P<0.01) | overall lower than the vehicle control group, with dose-response relationship | significantly higher than the corresponding groups of HMS5552 at 15 min | –
CC(C)C[C@@H](C(=O)Nc1ccn(C[C@@H](O)COC(=O)[C@@H](N)C(C)C)n1)N1CC(Oc2ccccc2Cl)=CC1=O [Compound 7] | extensively degraded in SIF | well metabolized in human intestinal S9 | 30.7 | 18.8 | 7.2 | 3.9 | 2.7 | metabolized very rapidly in rats by intravenous injection | significantly higher than the vehicle control group and HMS5552-40 mg/kg group at 0 min | significantly higher than the vehicle control group at 15 min | significantly higher than the vehicle control group at 15 min | stable in SGF for 24 hours | increased insulin secretion and greater glucose-lowering effect as compared to HMS5552 | significantly lower than the vehicle control group, with dose-response relationship | significantly lower than HMS5552-40 mg/kg group at 15 min, 30 min, 60 min, and 120 min | – | significantly lower than the corresponding groups of HMS5552 (P<0.01) | overall lower than the vehicle control group, with dose-response relationship | significantly higher than the corresponding groups of HMS5552 at 15 min | Remaining of Test Compound (%) ([1]; time point 0 hr): 100.00%; Remaining of Test Compound (%) ([1]; time point 1 hr): 25.13%; Remaining of Test Compound (%) ([1]; time point 2 hr): 3.50%; Remaining of Test Compound (%) ([1]; time point 6 hr): 4.88%; Remaining of Test Compound (%) ([1]; time point 24 hr): 0.00%; Remaining of Test Compound (%) ([2]; time point 0 min): 100%; Exposures (Cmax, Cmax ratio, AUC, AUC ratio) when administered orally vs parent drug (in words) ([3]; male, SD, po): comparable to the parent drug HIMS5552; Remaining of Test Compound (%) ([6]; time point 0 hr): 100.00%; Remaining of Test Compound (%) ([6]; time point 1 hr): 103.14%; Remaining of Test Compound (%) ([6]; time point 2 hr): 104.44%; Remaining of Test Compound (%) ([6]; time point 6 hr): 102.68%; Remaining of Test Compound (%) ([6]; time point 24 hr): 108.07%
CC(C)C[C@@H](C(=O)Nc1ccn(C[C@@H](O)CO)n1)N1CC(Oc2ccccc2Cl)=CC1=O [HMS5552, (S)-2-[4-(2-chloro-phenoxy)-2-oxo-2,5-dihydro-pyrrol-1-yl]-4-methyl-pentanoic acid [1-((R)-2,3-dihydroxy-propyl)-1H-pyrazol-3-yl]-amide, reference compound] | – | – | – | – | – | – | – | – | – | – | – | – | – | significantly lower than the vehicle control group, with dose-response relationship | – | significantly lower than the vehicle control group at 30 min, 60 min and 120 min | – | overall lower than the vehicle control group, with dose-response relationship | – | Insulin levels vs vehicle control group ([5]; HMS5552 groups, 0 min and 15 min): slightly higher than the vehicle control group at 0 min and 15 min, without significant difference
